Reference: ChEMBL document CHEMBL6087477, “G9a/GLP Modulators: Inhibitors to Degraders” (J Med Chem, 2025)

Assays:
[1] = Microsomal stability in human liver microsomes assessed as half life measured for incubated upto 60 mins by LC-MS/MS analysis; format: ADME, Microsome
[2] = target: T1, Histone-lysine N-methyltransferase EHMT1 (Homo sapiens, UniProt Q9H9B1); assay: Inhibition of GLP (unknown origin)
T1 sequence (Q9H9B1 whole entry): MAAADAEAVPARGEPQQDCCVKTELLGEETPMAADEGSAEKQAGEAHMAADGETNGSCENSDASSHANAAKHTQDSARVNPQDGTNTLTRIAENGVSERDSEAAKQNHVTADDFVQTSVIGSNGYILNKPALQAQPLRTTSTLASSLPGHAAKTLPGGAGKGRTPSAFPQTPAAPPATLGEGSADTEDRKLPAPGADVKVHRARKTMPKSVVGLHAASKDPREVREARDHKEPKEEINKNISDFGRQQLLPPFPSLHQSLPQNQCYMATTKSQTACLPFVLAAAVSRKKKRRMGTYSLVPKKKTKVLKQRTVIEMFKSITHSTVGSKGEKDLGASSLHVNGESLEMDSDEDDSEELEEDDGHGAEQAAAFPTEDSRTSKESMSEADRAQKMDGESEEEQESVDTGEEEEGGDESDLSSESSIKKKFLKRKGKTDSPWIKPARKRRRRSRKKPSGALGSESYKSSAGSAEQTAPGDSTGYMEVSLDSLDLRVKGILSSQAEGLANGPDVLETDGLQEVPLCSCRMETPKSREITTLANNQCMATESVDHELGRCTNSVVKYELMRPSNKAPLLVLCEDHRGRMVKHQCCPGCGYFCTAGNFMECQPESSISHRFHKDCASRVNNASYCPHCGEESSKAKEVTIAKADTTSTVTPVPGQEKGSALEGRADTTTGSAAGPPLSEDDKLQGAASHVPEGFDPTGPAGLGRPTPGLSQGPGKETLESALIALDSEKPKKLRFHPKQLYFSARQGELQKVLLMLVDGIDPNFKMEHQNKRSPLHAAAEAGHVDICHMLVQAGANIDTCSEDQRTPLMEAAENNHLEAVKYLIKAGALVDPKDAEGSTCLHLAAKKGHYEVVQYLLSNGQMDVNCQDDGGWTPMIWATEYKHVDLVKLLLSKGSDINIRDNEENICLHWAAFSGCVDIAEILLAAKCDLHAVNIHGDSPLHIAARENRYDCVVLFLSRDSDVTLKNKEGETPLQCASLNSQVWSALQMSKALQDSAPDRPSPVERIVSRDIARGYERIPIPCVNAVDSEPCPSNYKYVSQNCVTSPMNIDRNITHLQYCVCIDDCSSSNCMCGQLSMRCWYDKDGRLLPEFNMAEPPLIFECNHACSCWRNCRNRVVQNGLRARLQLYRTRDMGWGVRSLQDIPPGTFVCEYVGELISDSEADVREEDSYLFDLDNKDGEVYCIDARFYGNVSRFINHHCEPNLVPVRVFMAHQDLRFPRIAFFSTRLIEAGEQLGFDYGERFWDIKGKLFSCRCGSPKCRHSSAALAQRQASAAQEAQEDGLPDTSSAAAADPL

[3] = Half life in Balb/c mouse at 3 mg/kg, iv; format: ADME, organism-based; details: in vivo
[4] = Microsomal stability in mouse liver microsomes assessed as half life incubated upto 60 mins by LC-MS/MS analysis; format: ADME, Microsome
[5] = Cmax in mouse at 10 mg/kg, po; format: ADME, organism-based; details: in vivo
hERG (KCNH2) = hERG (KCNH2) (Homo sapiens, UniProt Q12809); assay: Inhibition of hERG at 30 uM relative to control; format: toxicity
Sequence of hERG (KCNH2) (Q12809 whole entry): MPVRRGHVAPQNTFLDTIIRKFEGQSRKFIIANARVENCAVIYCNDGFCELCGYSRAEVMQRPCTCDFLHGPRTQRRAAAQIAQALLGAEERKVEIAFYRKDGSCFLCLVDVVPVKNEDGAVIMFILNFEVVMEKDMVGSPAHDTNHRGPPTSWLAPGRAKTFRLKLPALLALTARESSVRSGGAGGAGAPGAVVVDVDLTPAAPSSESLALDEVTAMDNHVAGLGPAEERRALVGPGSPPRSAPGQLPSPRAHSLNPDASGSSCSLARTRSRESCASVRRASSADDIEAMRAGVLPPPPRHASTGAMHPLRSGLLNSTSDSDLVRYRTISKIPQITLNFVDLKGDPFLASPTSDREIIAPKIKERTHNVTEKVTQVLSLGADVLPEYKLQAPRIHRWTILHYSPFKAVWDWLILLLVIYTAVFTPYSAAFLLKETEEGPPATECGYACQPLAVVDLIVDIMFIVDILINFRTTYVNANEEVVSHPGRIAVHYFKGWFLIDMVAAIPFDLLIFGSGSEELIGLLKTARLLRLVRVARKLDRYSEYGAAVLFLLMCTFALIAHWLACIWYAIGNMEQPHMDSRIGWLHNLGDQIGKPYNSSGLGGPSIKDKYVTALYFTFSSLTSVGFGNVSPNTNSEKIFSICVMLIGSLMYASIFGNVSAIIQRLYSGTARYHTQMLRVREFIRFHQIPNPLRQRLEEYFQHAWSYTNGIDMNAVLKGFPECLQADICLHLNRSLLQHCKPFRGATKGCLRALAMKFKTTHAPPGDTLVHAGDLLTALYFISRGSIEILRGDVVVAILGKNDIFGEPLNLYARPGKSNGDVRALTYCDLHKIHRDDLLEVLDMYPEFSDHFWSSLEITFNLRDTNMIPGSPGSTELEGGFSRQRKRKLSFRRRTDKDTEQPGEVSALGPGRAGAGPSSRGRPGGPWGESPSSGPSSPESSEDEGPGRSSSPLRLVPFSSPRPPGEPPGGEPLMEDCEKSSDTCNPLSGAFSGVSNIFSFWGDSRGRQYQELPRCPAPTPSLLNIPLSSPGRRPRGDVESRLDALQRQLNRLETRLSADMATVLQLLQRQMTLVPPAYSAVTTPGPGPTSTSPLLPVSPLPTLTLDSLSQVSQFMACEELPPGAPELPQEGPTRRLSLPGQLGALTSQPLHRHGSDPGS

[6] = target: T2, Histone-lysine N-methyltransferase EHMT2 (Homo sapiens, UniProt Q96KQ7); assay: Inhibition of G9a (unknown origin) using H3 as peptide substrate measured after 20 mins by fluorescence based analysis
T2 sequence (Q96KQ7 whole entry): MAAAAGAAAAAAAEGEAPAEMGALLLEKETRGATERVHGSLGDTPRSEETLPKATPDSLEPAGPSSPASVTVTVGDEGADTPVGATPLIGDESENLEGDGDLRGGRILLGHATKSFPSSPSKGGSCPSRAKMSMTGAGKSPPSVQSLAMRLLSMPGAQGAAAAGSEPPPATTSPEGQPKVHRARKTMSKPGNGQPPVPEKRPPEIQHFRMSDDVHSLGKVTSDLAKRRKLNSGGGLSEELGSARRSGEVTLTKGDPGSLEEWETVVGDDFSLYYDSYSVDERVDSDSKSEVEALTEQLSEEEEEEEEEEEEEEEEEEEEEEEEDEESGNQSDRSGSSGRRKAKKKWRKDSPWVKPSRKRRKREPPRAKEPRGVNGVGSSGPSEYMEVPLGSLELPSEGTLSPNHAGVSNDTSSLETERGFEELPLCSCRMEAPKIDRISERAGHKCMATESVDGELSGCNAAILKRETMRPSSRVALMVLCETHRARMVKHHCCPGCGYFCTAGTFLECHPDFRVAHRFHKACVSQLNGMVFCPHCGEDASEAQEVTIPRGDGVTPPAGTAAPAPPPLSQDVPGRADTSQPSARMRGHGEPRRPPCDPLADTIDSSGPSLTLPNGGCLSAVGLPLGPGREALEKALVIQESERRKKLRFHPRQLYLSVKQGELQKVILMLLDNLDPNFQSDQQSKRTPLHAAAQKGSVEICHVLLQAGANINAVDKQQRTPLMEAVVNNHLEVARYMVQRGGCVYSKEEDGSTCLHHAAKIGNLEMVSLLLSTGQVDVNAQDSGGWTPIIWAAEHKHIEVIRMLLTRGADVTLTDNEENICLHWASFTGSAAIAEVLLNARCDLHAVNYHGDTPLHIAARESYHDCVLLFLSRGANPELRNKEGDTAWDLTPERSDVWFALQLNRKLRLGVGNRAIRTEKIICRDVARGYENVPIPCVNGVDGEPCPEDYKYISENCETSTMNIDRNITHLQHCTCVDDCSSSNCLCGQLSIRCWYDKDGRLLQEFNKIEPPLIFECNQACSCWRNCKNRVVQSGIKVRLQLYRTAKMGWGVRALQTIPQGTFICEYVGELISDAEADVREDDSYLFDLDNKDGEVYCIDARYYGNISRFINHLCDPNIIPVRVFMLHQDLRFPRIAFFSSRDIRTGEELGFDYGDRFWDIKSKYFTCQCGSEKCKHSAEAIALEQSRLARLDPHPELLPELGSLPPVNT

[7] = target: T1, Histone-lysine N-methyltransferase EHMT1; assay: Inhibition of GLP (unknown origin) measured after 20 mins by fluorescence based analysis
MCF7 [8] = assay: Cytotoxicity against human MCF7 cells; format: functional, cell-based
[9] = target: T2, Histone-lysine N-methyltransferase EHMT2; assay: Inhibition of G9a (unknown origin)
[10] = target: T2, Histone-lysine N-methyltransferase EHMT2; assay: Binding affinity to G9a (unknown origin) assessed as inhibition constant
[11] = target: T1, Histone-lysine N-methyltransferase EHMT1; assay: Binding affinity to GLP (unknown origin) assessed as inhibition constant
MCF7 [12] = assay: Antiproliferative activity against human MCF7 cells assessed as reduction in cell viability by sulforhodamine B assay; format: functional, cell-based
[13] = Antiproliferative activity against human WILL-1 cells assessed as reduction in cell viability; format: functional, cell-based
T47D = assay: Antiproliferative activity against human T47D cells assessed as reduction in cell viability by sulforhodamine B assay; format: functional, cell-based
[14] = Antiproliferative activity against human SC1 cells assessed as reduction in cell viability; format: functional, cell-based; details: SC-1
SU-DHL-8 = assay: Antiproliferative activity against human SU-DHL-8 cells assessed as reduction in cell viability; format: functional, cell-based
SK-BR-3 = assay: Antiproliferative activity against human SK-BR-3 cells assessed as reduction in cell viability by sulforhodamine B assay; format: functional, cell-based
DOHH-2 = assay: Antiproliferative activity against human DOHH-2 cells assessed as reduction in cell viability; format: functional, cell-based
[15] = Antiproliferative activity against human WSU-FSCCL cells assessed as reduction in cell viability; format: functional, cell-based
DB = assay: Antiproliferative activity against human DB cells assessed as reduction in cell viability; format: functional, cell-based

Work on `COc1cc2c(NC3CCN(C)CC3)cc(-c3ccc(C)o3)nc2cc1OCCCN1CCCC1` yielded a half-life [1] greater than 2.4 h, an IC50 [2] of 8 nM and a half-life [3] of 10.4 h. For the same compound, the half-life [4] was 0.1 h.

Compound `Cc1c(C(=O)N[C@@H](CCC2CC2)C(=O)Nc2ccc(C#N)cc2)[nH]c2c1C(=O)CC(C)(C)C2` has an IC50 [2] of 53 nM and a Cmax [5] of 42.4 µM.

Work on `COc1cc2c(cc1C1=CCNCCC1)N=C(N)C21CCC1` yielded an inhibition at 30 µM (hERG (KCNH2)) of 5%, an IC50 [6] of 33.9 nM and an IC50 [7] of 33.9 nM.

In the case of `COc1cc2c(NC3CCN(C(C)C)CC3)nc(C3CCCCC3)nc2cc1OCCCN1CCCC1`, the EC50 (MCF7 [8]) is reported as 7600 nM.

For `CN1C(=O)[C@]23C[C@]4([C@]56C[C@]78SS[C@](CO)(C(=O)N7[C@H]5Nc5ccccc56)N(C)C8=O)c5ccccc5N[C@@H]4N2C(=O)[C@@]1(CO)SS3`, the IC50 [9] was 1700 nM.

Work on `CN1C(=O)C2C[C@]3([C@]45CC6C(=O)N(C)[C@H](CO)C(=O)N6[C@H]4Nc4ccccc45)c4ccccc4N[C@@H]3N2C(=O)[C@H]1CO` (some centres not stated) yielded an IC50 [9] greater than 50000 nM.

In the case of `COc1cc2c(NC3CCN(C)CC3)nc(N3CCCN(C)CC3)nc2cc1OCCOCCN(C)C`, the Ki [10] is reported as 9 nM, the IC50 [9] is reported as less than 15 nM and the Ki [11] is reported as 15 nM.

In the case of `COc1cc2c(NC3CCN(C(C)C)CC3)cc(C3CCCCC3)nc2cc1OCCCN1CCCC1`, the IC50 [2] is reported as 0.7 nM.

`COc1cc2nc(N3CCN(C)CC3)nc(NC3CCN(Cc4ccccc4)CC3)c2cc1OC` gave an IC50 (MCF7 [12]) of 7700 nM, an IC50 [13] of 5600 nM and an IC50 (T47D) of 8500 nM. For the same compound, the IC50 [14] was 3700 nM, the IC50 (SU-DHL-8) was less than 1000 nM and the IC50 (SK-BR-3) was 7700 nM. The IC50 (DOHH-2) was 3300 nM, the IC50 [15] was 3400 nM and the IC50 (DB) was less than 1000 nM.

Compound `COc1cc2c(NC3CCN(C4CC4)CC3)cc(-c3ccc(C)o3)nc2cc1OCCCN1CCCC1` has a half-life [1] greater than 2.4 h, an IC50 [2] of 22 nM and a half-life [3] of 24.2 h. For the same compound, the half-life [4] was 0.6 h.

Work on `COc1cc2c(NC3CCN(C(C)C)CC3)nc(N3CCOCC3)nc2cc1OCCCN1CCCC1` yielded an IC50 [2] of less than 2.5 nM.

In the case of `CN1C(=O)C2C[C@]3([C@]45CC6C(=O)N(C)[C@@H](CO)C(=O)N6[C@H]4Nc4ccccc45)c4ccccc4N[C@@H]3N2C(=O)[C@@H]1CO` (some centres not stated), the IC50 [9] is reported as greater than 50000 nM.

With `COc1cc2c(cc1C1=CCN(C)CCC1)N=C(N)C21CCC1` the inhibition at 30 µM (hERG (KCNH2)) was 1% and the IC50 [6] was 75.7 nM.

`COc1cc2c(N(C)C3CCN(C(C)C)CC3)nc(C3CCCCC3)nc2cc1OCCCN1CCCC1` gave an IC50 [2] greater than 10 nM and an IC50 [9] of 5 nM.

`CCN(c1cc(-c2ccc(CN3CCOCC3)cc2)cc(C(=O)NCc2c(C)cc(C)[nH]c2=O)c1C)C1CCOCC1` [TAZEMETOSTAT] showed an IC50 [9] of 15 nM.

Work on `CNc1cc(C)nc(Nc2ccc(OC)c(C3=CCNCCC3)c2)n1` yielded an IC50 [6] of 32.3 nM.
